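Method: 48-hour compound exposure of cells in 96-well plates, five concentrations, linear interpolation of endpoints. TGI: total growth inhibition.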
Assays:
Experiment in all cases: NCI-60 cell line screen, 48 h
SK-MEL-2 melanoma = system: SK-MEL-2 melanoma
DU-145 prostate = system: DU-145 prostate
SNB-75 CNS = system: SNB-75 CNS
U251 CNS = system: U251 CNS
LOX IMVI melanoma = system: LOX IMVI melanoma
SK-OV-3 ovarian = system: SK-OV-3 ovarian
786-0 renal = system: 786-0 renal
NCI-H23 lung = system: NCI-H23 lung
RXF 393 renal = system: RXF 393 renal
HL-60(TB) leukemia = system: HL-60(TB) leukemia
EKVX NSCLC = system: EKVX NSCLC
UACC-62 melanoma = system: UACC-62 melanoma
HCT-15 colon = system: HCT-15 colon
SNB-19 CNS = system: SNB-19 CNS
MCF7 breast = system: MCF7 breast
MDA-MB-231 breast = system: MDA-MB-231 breast
COLO 205 colon = system: COLO 205 colon
SF-268 CNS = system: SF-268 CNS
HCT-116 colon = system: HCT-116 colon
A498 renal = system: A498 renal
T-47D breast = system: T-47D breast
M14 melanoma = system: M14 melanoma
ACHN renal = system: ACHN renal
NCI/ADR-RES ovarian = system: NCI/ADR-RES ovarian
UO-31 renal = system: UO-31 renal
HT29 colon = system: HT29 colon
OVCAR-8 ovarian = system: OVCAR-8 ovarian
HOP-62 NSCLC = system: HOP-62 NSCLC
NCI-H226 lung = system: NCI-H226 lung
BT-549 breast = system: BT-549 breast
NCI-H460 lung = system: NCI-H460 lung
OVCAR-4 ovarian = system: OVCAR-4 ovarian
MDA-N = system: MDA-N
UACC-257 melanoma = system: UACC-257 melanoma
TK-10 renal = system: TK-10 renal
HCC-2998 colon = system: HCC-2998 colon
HOP-92 NSCLC = system: HOP-92 NSCLC
KM12 colon = system: KM12 colon
OVCAR-5 ovarian = system: OVCAR-5 ovarian
IGROV1 ovarian = system: IGROV1 ovarian
SK-MEL-28 melanoma = system: SK-MEL-28 melanoma
MDA-MB-435 = system: MDA-MB-435
SW-620 colon = system: SW-620 colon
CAKI-1 renal = system: CAKI-1 renal
OVCAR-3 ovarian = system: OVCAR-3 ovarian
SF-295 CNS = system: SF-295 CNS
SF-539 CNS = system: SF-539 CNS
SN12C renal = system: SN12C renal
A549 NSCLC = system: A549 NSCLC
SK-MEL-5 melanoma = system: SK-MEL-5 melanoma
MOLT-4 leukemia = system: MOLT-4 leukemia
NCI-H522 lung = system: NCI-H522 lung
SR leukemia = system: SR leukemia
RPMI-8226 leukemia = system: RPMI-8226 leukemia
K-562 leukemia = system: K-562 leukemia
MALME-3M melanoma = system: MALME-3M melanoma
PC-3 prostate = system: PC-3 prostate
CCRF-CEM leukemia = system: CCRF-CEM leukemia
HS 578T breast = system: HS 578T breast

C/C(O)=C(\C=NC(=S)c1ccncc1)C(=O)Nc1ccccc1C
TGI (SK-MEL-2 melanoma): > 100 µM | TGI (DU-145 prostate): > 100 µM | TGI (SNB-75 CNS): > 100 µM | TGI (U251 CNS): > 100 µM | TGI (LOX IMVI melanoma): > 100 µM | TGI (SK-OV-3 ovarian): > 100 µM | TGI (786-0 renal): > 100 µM | TGI (NCI-H23 lung): > 100 µM | TGI (RXF 393 renal): > 100 µM | TGI (HL-60(TB) leukemia): > 100 µM | TGI (EKVX NSCLC): > 100 µM | TGI (UACC-62 melanoma): > 100 µM | TGI (HCT-15 colon): > 100 µM | TGI (SNB-19 CNS): > 100 µM | TGI (MCF7 breast): > 100 µM | TGI (MDA-MB-231 breast): > 100 µM | TGI (COLO 205 colon): > 100 µM | TGI (SF-268 CNS): > 100 µM | TGI (HCT-116 colon): > 100 µM | TGI (A498 renal): > 100 µM | TGI (T-47D breast): > 100 µM | TGI (M14 melanoma): > 100 µM | TGI (ACHN renal): > 100 µM | TGI (NCI/ADR-RES ovarian): > 100 µM | TGI (UO-31 renal): > 100 µM | TGI (HT29 colon): > 100 µM | TGI (OVCAR-8 ovarian): > 100 µM | TGI (HOP-62 NSCLC): > 100 µM | TGI (NCI-H226 lung): > 100 µM | TGI (BT-549 breast): > 100 µM | TGI (NCI-H460 lung): > 100 µM | TGI (OVCAR-4 ovarian): > 100 µM | TGI (MDA-N): > 100 µM | TGI (UACC-257 melanoma): > 100 µM | TGI (TK-10 renal): > 100 µM | TGI (HCC-2998 colon): > 100 µM | TGI (HOP-92 NSCLC): > 100 µM | TGI (KM12 colon): > 100 µM | TGI (OVCAR-5 ovarian): > 100 µM | TGI (IGROV1 ovarian): > 100 µM | TGI (SK-MEL-28 melanoma): > 100 µM | TGI (MDA-MB-435): > 100 µM | TGI (SW-620 colon): > 100 µM | TGI (CAKI-1 renal): > 100 µM | TGI (OVCAR-3 ovarian): > 100 µM | TGI (SF-295 CNS): > 100 µM | TGI (SF-539 CNS): > 100 µM | TGI (SN12C renal): > 100 µM | TGI (A549 NSCLC): > 100 µM | TGI (SK-MEL-5 melanoma): > 100 µM

CC1(C)OC2OC(COC(=O)c3ccc(C#N)cc3)C3OC(C)(C)OC3C2O1 (centres undefined)
TGI (MOLT-4 leukemia): > 75 µM | TGI (SK-MEL-2 melanoma): > 75 µM | TGI (DU-145 prostate): > 75 µM | TGI (NCI-H522 lung): > 75 µM | TGI (SNB-75 CNS): > 75 µM | TGI (U251 CNS): > 75 µM | TGI (LOX IMVI melanoma): > 75 µM | TGI (SK-OV-3 ovarian): > 75 µM | TGI (786-0 renal): > 75 µM | TGI (NCI-H23 lung): > 75 µM | TGI (RXF 393 renal): > 75 µM | TGI (EKVX NSCLC): > 75 µM | TGI (SR leukemia): > 75 µM | TGI (UACC-62 melanoma): > 75 µM | TGI (HCT-15 colon): > 75 µM | TGI (SNB-19 CNS): > 75 µM | TGI (MCF7 breast): > 75 µM | TGI (MDA-MB-231 breast): > 75 µM | TGI (COLO 205 colon): > 75 µM | TGI (SF-268 CNS): > 75 µM | TGI (HCT-116 colon): > 75 µM | TGI (A498 renal): > 75 µM | TGI (M14 melanoma): > 75 µM | TGI (RPMI-8226 leukemia): > 75 µM | TGI (ACHN renal): > 75 µM | TGI (NCI/ADR-RES ovarian): > 75 µM | TGI (UO-31 renal): > 75 µM | TGI (HT29 colon): > 75 µM | TGI (OVCAR-8 ovarian): > 75 µM | TGI (HOP-62 NSCLC): > 75 µM | TGI (NCI-H226 lung): > 75 µM | TGI (K-562 leukemia): > 75 µM | TGI (BT-549 breast): > 75 µM | TGI (OVCAR-4 ovarian): > 75 µM | TGI (MDA-N): > 75 µM | TGI (UACC-257 melanoma): > 75 µM | TGI (TK-10 renal): > 75 µM | TGI (HCC-2998 colon): > 75 µM | TGI (KM12 colon): > 75 µM | TGI (OVCAR-5 ovarian): > 75 µM | TGI (IGROV1 ovarian): > 75 µM | TGI (MALME-3M melanoma): > 75 µM | TGI (PC-3 prostate): > 75 µM | TGI (SK-MEL-28 melanoma): > 75 µM | TGI (MDA-MB-435): > 75 µM | TGI (SW-620 colon): > 75 µM | TGI (CAKI-1 renal): > 75 µM | TGI (OVCAR-3 ovarian): > 75 µM | TGI (SF-295 CNS): > 75 µM | TGI (CCRF-CEM leukemia): > 75 µM | TGI (SF-539 CNS): > 75 µM | TGI (SN12C renal): > 75 µM | TGI (A549 NSCLC): > 75 µM | TGI (SK-MEL-5 melanoma): > 75 µM

C#CC(O)/C=C/C(O)CCCC(O)CC#CC(O)C#CCCCCC(O)/C=C/CCCC(O)/C=C/CCCCCCCCCCCCCC(O)C(O)C#CC(=O)O (centres undefined)
TGI (MOLT-4 leukemia): > 25 µM | TGI (SK-MEL-2 melanoma): > 25 µM | TGI (DU-145 prostate): > 25 µM | TGI (NCI-H522 lung): > 25 µM | TGI (SNB-75 CNS): > 25 µM | TGI (U251 CNS): > 25 µM | TGI (LOX IMVI melanoma): > 25 µM | TGI (SK-OV-3 ovarian): > 25 µM | TGI (786-0 renal): > 25 µM | TGI (NCI-H23 lung): > 25 µM | TGI (RXF 393 renal): > 25 µM | TGI (HL-60(TB) leukemia): > 25 µM | TGI (EKVX NSCLC): > 25 µM | TGI (SR leukemia): > 25 µM | TGI (UACC-62 melanoma): > 25 µM | TGI (HCT-15 colon): > 25 µM | TGI (SNB-19 CNS): > 25 µM | TGI (MCF7 breast): > 25 µM | TGI (MDA-MB-231 breast): > 25 µM | TGI (COLO 205 colon): > 25 µM | TGI (HS 578T breast): > 25 µM | TGI (SF-268 CNS): > 25 µM | TGI (HCT-116 colon): > 25 µM | TGI (A498 renal): > 25 µM | TGI (T-47D breast): > 25 µM | TGI (M14 melanoma): > 25 µM | TGI (RPMI-8226 leukemia): > 25 µM | TGI (ACHN renal): > 25 µM | TGI (NCI/ADR-RES ovarian): > 25 µM | TGI (UO-31 renal): > 25 µM | TGI (HT29 colon): > 25 µM | TGI (OVCAR-8 ovarian): > 25 µM | TGI (HOP-62 NSCLC): > 25 µM | TGI (NCI-H226 lung): > 25 µM | TGI (K-562 leukemia): > 25 µM | TGI (NCI-H460 lung): > 25 µM | TGI (OVCAR-4 ovarian): > 25 µM | TGI (MDA-N): > 25 µM | TGI (UACC-257 melanoma): > 25 µM | TGI (TK-10 renal): > 25 µM | TGI (HCC-2998 colon): > 25 µM | TGI (HOP-92 NSCLC): > 25 µM | TGI (KM12 colon): > 25 µM | TGI (OVCAR-5 ovarian): > 25 µM | TGI (IGROV1 ovarian): > 25 µM | TGI (MALME-3M melanoma): > 25 µM | TGI (PC-3 prostate): > 25 µM | TGI (SK-MEL-28 melanoma): > 25 µM | TGI (MDA-MB-435): > 25 µM | TGI (CAKI-1 renal): > 25 µM | TGI (SF-295 CNS): > 25 µM | TGI (CCRF-CEM leukemia): > 25 µM | TGI (SN12C renal): > 25 µM | TGI (A549 NSCLC): > 25 µM | TGI (SK-MEL-5 melanoma): > 25 µM
